Test results reported in patent US9671405B2, “Identifying taxane sensitivity in prostate cancer patients” (Cornell University, priority 2012, dated 2017).

Assays:
Type in all cases: cell-based, human
[1] = tested on: leucocytes; experiment: On-chip ex-vivo taxane treatment, microtubule bundling in leucocytes present on the chip; settings: FIG. 5F patient (patient 4), 50 nM paclitaxel ex-vivo on-chip
Description: FIG. 5A-5F illustrates on-chip assessment of effective drug-target engagement in viable GEDI-captured circulating tumor cells, and that tubulin responses to taxane treatment can be assessed in GEDI-captured cells. […] One ml of spiked blood was then passed through each of three GEDI devices. […] Following drug treatment, cells were fixed and processed for immunofluorescence staining using antibodies against tubulin and CD45. DAPI was used as a DNA counterstain to evaluate nuclear integrity. […] Following drug treatment, the PSMA-captured cells were fixed and processed for immunofluorescence staining as in FIG. 5A with the addition of cytokeratin-18 as an alternative epithelial marker. […]
For ex-vivo drug treatment experiments, the blood sample from each patient was divided and 1 ml was flown to each of three GEDI devices simultaneously. […] All circulating tumor cells (PSMA^+/CD45−/DAPI^+) were assessed for the presence of microtubule bundles as evidence of effective drug-target engagement. The percent of circulating tumor cells with evidence of microtubule bundling was calculated. In all samples analyzed, bundling was clearly apparent by the distinct shape, width, orientation and increased fluorescence intensity of microtubule bundles as compared with microtubules from untreated cells. […]

[2] = tested on: GEDI-captured circulating tumor cells from castration-resistant prostate cancer patients; experiment: On-chip ex-vivo taxane treatment of GEDI-captured patient circulating tumor cells, microtubule bundling as drug-target engagement
Description: One ml of spiked blood was then passed through each of three GEDI devices. […] Following drug treatment, cells were fixed and processed for immunofluorescence staining using antibodies against tubulin and CD45. DAPI was used as a DNA counterstain to evaluate nuclear integrity. […] Following drug treatment, the PSMA-captured cells were fixed and processed for immunofluorescence staining as in FIG. 5A with the addition of cytokeratin-18 as an alternative epithelial marker.
For ex-vivo drug treatment experiments, the blood sample from each patient was divided and 1 ml was flown to each of three GEDI devices simultaneously. […] At the end of treatment, the GEDI-captured cells were fixed with PHEMO buffer and processed for multiplex confocal microscopy following immunostaining with different cell surface and cytoplasmic antibodies as indicated. […] The percent of circulating tumor cells with evidence of microtubule bundling was calculated. […] In addition, DAPI counterstain was used to assess the presence of mitotic or apoptotic nuclei following drug treatment.
The GEDI-captured circulating tumor cells were tested in situ (i.e., while in the GEDI device) to evaluate their chemosensitivity to taxanes, and predict a patient's clinical response to therapy. […] Microtubule bundling is the first event induced by taxane treatment, resulting in downstream mitotic arrest and apoptotic cell death, and is therefore an appropriate marker of efficient taxane drug-target engagement.

[3] = tested on: ARv7; experiment: Nuclear localization of GFP-tagged ARv7 in M12 cells, confocal microscopy; settings: 10 nM R1881 2 hr
Description: (§1) Cells were then fixed, immunostained for tubulin, and imaged for GFP-AR and tubulin by confocal microscopy. Androgen receptor is shown as lighter staining (green in the original), while tubulin staining is darker but visible as lighter areas in the images (red in the original). Representative, high-magnification images from each condition are shown. […] Scale bar: 10 μm. FIG. 9D is a bar graph depicting the ratio of cells with nuclear androgen receptor over those with cytoplasmic androgen receptor for each condition. […] Relative mRNA expression of TMPRSS2 and FKBP51 was assessed by qPCR. Values were corrected to GAPDH and normalized to untreated M12 cells expressing control lentivirus (M12 lenti). […] Androgen receptor protein expression was detected by staining with anti-androgen receptor or anti-ARN-21 antibodies. […] Cells were then fixed, immunostained for tubulin, and imaged for GFP-AR and tubulin by confocal microscopy. […]
(§2) In addition, M12 cells stably expressing GFP-tagged AR-wt, AR or variants were generated in Or Giannakakou's laboratory. GFP^+ cells from all three androgen receptor cell lines were sorted using fluorescence activated cell sorting (FACS) on a BD FACSAria II cell sorter (BD Biosciences, Franklin Lakes, N.J., USA) and subsequently expanded in media containing G418 ([…]). […]

[4] = tested on: ARv5,6,7; experiment: Nuclear localization of GFP-tagged ARv5,6,7 in M12 cells, confocal microscopy; settings: 10 nM R1881 2 h
Description: as §1, §2

Row | SMILES | leucocytes present on the chip showing microtubule bundling [1] [%] | microtubule bundling of circulating tumor cells ([2]; patient 2, 100 nM or 1 uM paclitaxel ex-vivo on-chip) | response of circulating tumor cells to drug treatment ([2]; patient 4, 50 nM paclitaxel ex-vivo on-chip) | apoptotic nuclei in circulating tumor cells ([2]; patient docetaxel progressor on cabazitaxel, ex vivo 24 hr) | effect on microtubule cytoskeleton of captured circulating tumor cells ([2]; patient of FIG. 5B (docetaxel progressor), 100 nM ex vivo, 24 hr) | mitotic arrest of captured circulating tumor cells ([2]; same patient as FIG. 5B (FIG. 5C), ex vivo 24 hr) | nuclear accumulation of ARv7 induced by R1881 [3] | nuclear accumulation of ARv5,6,7 induced by R1881 [4]
1 | CC(=O)O[C@H]1C(=O)[C@@]2(C)[C@H]([C@H](OC(=O)c3ccccc3)[C@]3(O)C[C@H](OC(=O)[C@H](O)[C@@H](NC(=O)c4ccccc4)c4ccccc4)C(C)=C1C3(C)C)[C@]1(OC(C)=O)CO[C@@H]1C[C@@H]2O [paclitaxel] | ~100 | display microtubule bundling | heterogeneous response | exhibited apoptotic nuclei | clear evidence of microtubule bundling | signs of aberrant mitotic arrest |  | 
2 | C[C@]1(O)CC[C@H]2[C@@H]3CCC4=CC(=O)CCC4=C3C=C[C@@]21C [R1881, Methyltrienolone] |  |  |  |  |  |  | does not increase nuclear accumulation | did not induce any further nuclear accumulation
